According to patent publication US7300930B2, “Therapeutic acridone and acridine compounds” (Cancer Research Technology Limited, priority 2000, dated 2007):
pIC50: −log10 of the molar value.

Assays:
[1] = tested on: human telomerase; details: as described by Read et al., April 2001; cited from earlier work
[2] = target: telomerase (Homo sapiens, UniProt O14746); assay: Modified telomeric repeat amplification protocol (TRAP) assay, cell-free; format: biochemical; details: extracts from A2780 cells, tested as salts, read-out: telIC50 (Telomerase Inhibitory Activity)
telomerase, sequence (O14746 whole entry): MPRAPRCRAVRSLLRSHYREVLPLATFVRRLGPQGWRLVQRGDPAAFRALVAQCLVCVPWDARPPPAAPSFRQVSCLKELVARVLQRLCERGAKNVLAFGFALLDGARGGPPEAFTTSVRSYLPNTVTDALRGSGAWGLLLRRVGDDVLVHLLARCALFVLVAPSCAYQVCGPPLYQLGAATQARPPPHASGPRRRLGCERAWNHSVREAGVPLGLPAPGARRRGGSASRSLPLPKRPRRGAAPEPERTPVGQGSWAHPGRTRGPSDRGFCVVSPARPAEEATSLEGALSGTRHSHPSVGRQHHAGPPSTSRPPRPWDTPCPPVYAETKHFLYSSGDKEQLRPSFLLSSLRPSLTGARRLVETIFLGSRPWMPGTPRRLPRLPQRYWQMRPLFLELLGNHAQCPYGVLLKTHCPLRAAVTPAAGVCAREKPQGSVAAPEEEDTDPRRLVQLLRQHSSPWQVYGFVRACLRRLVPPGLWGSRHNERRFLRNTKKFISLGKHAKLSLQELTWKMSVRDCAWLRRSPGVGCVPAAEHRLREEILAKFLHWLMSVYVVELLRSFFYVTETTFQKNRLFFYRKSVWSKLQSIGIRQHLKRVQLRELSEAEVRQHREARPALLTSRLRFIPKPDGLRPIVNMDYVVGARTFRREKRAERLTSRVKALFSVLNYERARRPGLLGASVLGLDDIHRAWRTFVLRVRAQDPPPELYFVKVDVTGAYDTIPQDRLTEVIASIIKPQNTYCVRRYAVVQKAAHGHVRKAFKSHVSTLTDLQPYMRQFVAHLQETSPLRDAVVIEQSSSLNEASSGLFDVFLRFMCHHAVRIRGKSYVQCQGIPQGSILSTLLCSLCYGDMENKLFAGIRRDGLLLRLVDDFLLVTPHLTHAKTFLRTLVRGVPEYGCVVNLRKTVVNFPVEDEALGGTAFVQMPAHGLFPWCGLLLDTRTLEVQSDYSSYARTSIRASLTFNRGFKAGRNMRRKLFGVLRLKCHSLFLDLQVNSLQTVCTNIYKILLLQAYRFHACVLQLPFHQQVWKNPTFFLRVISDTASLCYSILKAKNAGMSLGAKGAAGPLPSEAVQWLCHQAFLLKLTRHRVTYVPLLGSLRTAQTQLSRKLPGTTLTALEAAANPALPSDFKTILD
Protocol: The ability of compounds to inhibit telomerase in a cell-free assay was assessed with a modified TRAP assay using extracts from exponentially growing A2780 human ovarian carcinoma cells. The TRAP assay was performed in 2 steps: (a) telomerase-mediated extension of the forward primer (TS: 5′-AATCCGTCGAGCAGAGTT (SEQ ID NO:3), Oswel Ltd., Southampton, UK) contained in a 40 µL reaction mix comprising TRAP buffer (20 mM Tris-HCl (pH 8.3), 68 mM KCl, 1.5 mM MgCl2, 1 mM EGTA, 0.05% v/v Tween 20), 0.05 μg bovine serum albumin, 50 μM of each deoxynucleotide triphosphate, 0.1 μg TS primer, and 3 μCi of [α-^32P]dCTP (Amersham plc, UK). Protein (40 ng or 20 ng) was then incubated with the reaction mix+agent (acid addition and quaternary dimethiodide salts) at final concentrations of up to 50 μM for 20 min at 25° C. A lysis buffer (no protein) control, heat-inactivated protein control, and 50% protein (20 ng or 10 ng) control were included in each assay; and (b) while heating at 80° C. in a PCR block of a thermal cycler (Hybaid, UK) for 5 min to inactivate telomerase activity, 0.1 μg of reverse CX primer (3′-[…]-5′ (SEQ ID NO:4)) and 2 Units of Taq DNA polymerase (“red hot”, Advanced Biotechnologies) were added. A 3-step PCR was then performed: 94° C. for 30 s, 50° C. for 30 s, and 72° C. for 1 min for 31 cycles. Telomerase-extended PCR products in the presence or absence of compounds were then determined either by electrophoretic separation using 8% w/w acrylamide denaturing gels and analysis by phosphorimaging or autoradiography, or by harvesting on Whatman filters (25 mm glass microfibre) and analysis by liquid scintillation counting.

[3] = Growth inhibition, sulforhodamine B (SRB) assay, A2780; format: cell-based; details: human, A2780 ovarian carcinoma cells, A2780, 96 hr incubation, tested as salts, read-out: Cytotoxicity - IC50 A2780
Protocol: (§1) Growth inhibition was measured in three human ovarian carcinoma cell lines (A2780, CH1, and SKOV-3) and one human cervix carcinoma cell line (A431) using the sulforhodamine B (SRB) assay. Briefly, between 3000 and 6000 cells were seeded into the wells of 96-well microtiter plates and allowed to attach overnight. Compounds (acid addition and quaternary dimethiodide salts) were dissolved at 500 μM in water and immediately added to wells in quadruplicate at final concentrations of 0.05, 0.25, 1, 5 and 25 μM. Following an incubation period of 96 hr, remaining cells were fixed with ice-cold 10% w/v trichloroacetic acid (30 min) and stained with 0.4% SRB in 1% v/v acetic acid (15 min). Mean absorbance at 540 nm for each drug concentration was expressed as a percentage of the control untreated well absorbance, and IC50 values (concentration required to inhibit cell growth by 50%) were determined for each agent.

[4] = Growth inhibition, sulforhodamine B (SRB) assay, SKOV-3; format: cell-based; details: human, SKOV-3 ovarian carcinoma cells, SKOV-3, 96 hr incubation, tested as salts, read-out: Cytotoxicity - IC50 SKOV-3
Protocol: as §1

[5] = Growth inhibition, sulforhodamine B (SRB) assay, A431; format: cell-based; details: human, A431 cervix carcinoma cells, A431, 96 hr incubation, tested as salts, read-out: Cytotoxicity - IC50 A431
Protocol: as §1

[6] = Growth inhibition, sulforhodamine B (SRB) assay, CH1; format: cell-based; details: human, CH1 ovarian carcinoma cells, CH1, 96 hr incubation, tested as salts, read-out: Cytotoxicity - IC50 CH1
Protocol: as §1

SMILES	pIC50 [2]	in vitro inhibitory activity against human telomerase [1]	IC50 at 96 h [3] [µM]	IC50 at 96 h [4] [µM]	IC50 at 96 h [5] [µM]	IC50 at 96 h [6] [µM]
CN(C)c1ccc(Nc2c3ccc(NC(=O)CCN4CCCC4)cc3nc3cc(NC(=O)CCN4CCCC4)ccc23)cc1 [BR-ACO-19, N-{9-[4′-(N,N-Dimethylamino)phenylamino]}-3,6-bis(3-pyrrolidinopropionamido)acridine]	7.02	potent in vitro inhibitory activity	10	13	15.8	10.1
Nc1ccc(Nc2c3ccc(NC(=O)CCN4CCCC4)cc3nc3cc(NC(=O)CCN4CCCC4)ccc23)cc1 [BR-ACO-20, N-[9-(4′-Aminophenylamino)]-3,6-bis(3-pyrrolidinopropionamido)acridine]	7.22	potent in vitro inhibitory activity	> 25	> 25		> 25
CN1CCCC1CCNc1c2ccc(NC(=O)CCN3CCCC3)cc2nc2cc(NC(=O)CCN3CCCC3)ccc12 (stereo not drawn) [SB-ACI-12, N-{9-[2-(2′-Aminoethyl)-1-methylpyrrolidino]}-3,6-bis(3-pyrrolidinopropionamido)acridine]	7.74		> 25	> 25	≥ 25	> 25
O=C(CCN1CCCC1)Nc1ccc2c(NCc3cccnc3)c3ccc(NC(=O)CCN4CCCC4)cc3nc2c1 [SB-ACI-13, N-[9-(Pyridin-3′-yl-methylamino)]-3,6-bis(3-pyrrolidinopropionamido)acridine]	7.18		> 25	> 25	> 25	> 25

The remaining molecules from weak to strong by pIC50 [2], led by results:

pIC50 [2]	SMILES	in vitro inhibitory activity against human telomerase [1]	IC50 at 96 h [3] [µM]	IC50 at 96 h [4] [µM]	IC50 at 96 h [5] [µM]	IC50 at 96 h [6] [µM]
5.63	O=C(CCN1CCCCC1CO)Nc1ccc2[nH]c3ccc(NC(=O)CCN4CCCCC4CO)cc3c(=O)c2c1 (stereo not drawn) [JM-ACO-12, 2,7-Bis[3-(2-hydroxymethylpiperidino)propionamido]-9(10H)-acridone]		> 25	> 25	> 25	> 25
7.00	CC(=O)Nc1cccc(Nc2c3ccc(NC(=O)CCN4CCCC4)cc3nc3cc(NC(=O)CCN4CCCC4)ccc23)c1 [SB-ACI-14, N-{9-[(3′-Acetamido)aminophenyl]}-3,6-bis(3-pyrrolidinopropionamido)acridine]		> 25	> 25	> 25	> 25
7.74	CN(C)CCNc1c2ccc(NC(=O)CCN3CCCC3)cc2nc2cc(NC(=O)CCN3CCCC3)ccc12 [SB-ACI-11, N-[9-(N,N-Dimethylethylenediamino)]-3,6-bis(3-pyrrolidinopropionamido)acridine]		> 25	> 25	> 25	17
